# Reference: patent US20210309631A1, “SALT OF CYCLOHEXANE DERIVATIVE” (priority 2018, published 2021)
# Where two headings read alike, the source gives them in different places.
# What was measured:
# solubility in water = assay type: physicochemical; settings: listed as crystal Form A of the free base
# [1] = In vivo individual difference analysis: individual plasma concentration versus time in rats (Example 8); set-up: species or system SD rats; settings: intragastric 1 mg/kg; for Plasma Concentrations of Compound of Formula I: listed as Compound of Formula I; for concentration at 0 h: 0 h after administration
# Description: Compound of Formula I and salts thereof (sulfate, hydrochloride salt, phosphate, maleate), supplied by Shanghai Jingxin Biopharmaceutical Co., Ltd. • Strain: SD rats; Gender: male; Body weight: about 250 grams; Source: shanghai Jiesijie Experimental Animal Co., Ltd Route: single intragastric administration; Capacity: measured in 10 mL/kg body weight Preparation: weighing appropriate amount of the free base or salt of the compound of Formula I, adding a small amount of 0.5% CMC-Na to grind, adding 0.5% CMC-Na to the volume. The concentration is measured as the base. 20 SD rats were divided into 5 groups with 4 rats in each group, fasted for 12 h and drank freely before administration. […] The blood was anticoagulated with 1% heparin, the plasma was separated by 8000 rpm centrifugation for 4 min and stored at -40° C. for testing. LC-MS/MS Method. Pharmacokinetic parameters after administration in rats were calculated using a non-compartmental model of DAS 2.0 software.
# [2] = Plasma pharmacokinetics in SD rats after single intragastric administration (Example 7); assay type: in vivo; settings: intragastric 1 mg/kg, Mean ± SD, non-compartmental model, listed as free base
# Description: The in vivo absorption process and characteristics of the free base and four salts thereof (sulfate, hydrochloride salt, phosphate, maleate) of compound (I) in rats were studied. The pharmacokinetics of a single intragastric administration of 1 mg/kg of a compound of Formula I and four salts thereof (calculated by free base concentration in salt form) were studied in SD rats.
# SD rats were given a single intragastric administration of 1 mg/kg free base of Example 1 and four salts thereof (including hydrochloride salt from Example 2, sulfate from Example 3, phosphate from Example 4 and maleate from Example 5). There were 4 male rats in each group. The concentration of the compound of Formula I in plasma was determined, and the pharmacokinetic parameters were calculated according to the concentration-time curve.
# [3] = Hygroscopicity (DVS) experiment, 25° C./80% relative humidity; assay type: physicochemical; settings: DVS, 25° C./80% relative humidity; listed as Example 1 free base
# Description: Dynamic vapor sorption curves were collected on a DVS Intrinsic by SMS (Surface Measurement Systems).
# 20 mg sample of the crystal forms of the Examples and Comparative Examples are placed in the environment of 25° C./80% relative humidity for a dynamic vapor sorption (DVS) test, and the test results […] are shown in Table 5.
compound,measurement,setting,value
"CN(C)C(=O)N[C@H]1CC[C@H](CCN2CCN(c3cccc4ccsc34)CC2)CC1 [Example 1, N′-[trans-4-[2-[7-(benzo[b]thiophene)-7-piperazinyl]ethyl]cyclohexyl]-N,N-dimethylurea]",solubility in water,solubility in water,about 0.031 mg/ml
same,Plasma Concentrations of Compound of Formula I,"[1]; 5 min after administration, Mean ± SD",3.40 ± 5.74 ng/mL
same,Plasma Concentrations of Compound of Formula I,"[1]; 5 min after administration, rat 1♂",0.419 ng/mL
same,Plasma Concentrations of Compound of Formula I,"[1]; 5 min after administration, rat 2♂",0.624 ng/mL
same,Plasma Concentrations of Compound of Formula I,"[1]; 5 min after administration, rat 3♂",12.0 ng/mL
same,Plasma Concentrations of Compound of Formula I,"[1]; 5 min after administration, rat 4♂",0.543 ng/mL
same,Plasma Concentrations of Compound of Formula I,"[1]; 0.167 h after administration, rat 1♂",6.35 ng/mL
same,Plasma Concentrations of Compound of Formula I,"[1]; 0.167 h after administration, rat 3♂",25.8 ng/mL
same,Plasma Concentrations of Compound of Formula I,"[1]; 0.333 h after administration, rat 1♂",26.8 ng/mL
same,Plasma Concentrations of Compound of Formula I,"[1]; 0.333 h after administration, rat 2♂",33.0 ng/mL
same,Plasma Concentrations of Compound of Formula I,"[1]; 0.333 h after administration, rat 3♂",51.8 ng/mL
same,Plasma Concentrations of Compound of Formula I,"[1]; 0.5 h after administration, rat 2♂",37.2 ng/mL
same,Plasma Concentrations of Compound of Formula I,"[1]; 0.5 h after administration, rat 3♂",51.6 ng/mL
same,Plasma Concentrations of Compound of Formula I,"[1]; 1 h after administration, rat 3♂",45.6 ng/mL
same,Plasma Concentrations of Compound of Formula I,"[1]; 2 h after administration, rat 3♂",23.9 ng/mL
same,Plasma Concentrations of Compound of Formula I,"[1]; 2 h after administration, rat 4♂",40.3 ng/mL
same,Plasma Concentrations of Compound of Formula I,"[1]; 4 h after administration, rat 2♂",6.30 ng/mL
same,Plasma Concentrations of Compound of Formula I,"[1]; 4 h after administration, rat 3♂",7.95 ng/mL
same,Plasma Concentrations of Compound of Formula I,"[1]; 4 h after administration, rat 4♂",16.0 ng/mL
same,Plasma Concentrations of Compound of Formula I,"[1]; 6 h after administration, rat 2♂",1.94 ng/mL
same,Plasma Concentrations of Compound of Formula I,"[1]; 6 h after administration, rat 4♂",8.91 ng/mL
same,Plasma Concentrations of Compound of Formula I,"[1]; 9 h after administration, rat 2♂",0.95 ng/mL
same,Plasma Concentrations of Compound of Formula I,"[1]; 9 h after administration, rat 4♂",3.30 ng/mL
same,Plasma Concentrations of Compound of Formula I,"[1]; 12 h after administration, rat 1♂",0.372 ng/mL
same,Plasma Concentrations of Compound of Formula I,"[1]; 12 h after administration, rat 2♂",0.578 ng/mL
same,Plasma Concentrations of Compound of Formula I,"[1]; 12 h after administration, rat 3♂",0.682 ng/mL
same,Plasma Concentrations of Compound of Formula I,"[1]; 12 h after administration, rat 4♂",1.66 ng/mL
same,Plasma Concentrations of Compound of Formula I,"[1]; 24 h after administration, Mean ± SD",0.497 ± 0.273 ng/mL
same,Plasma Concentrations of Compound of Formula I,"[1]; 24 h after administration, rat 1♂",0.487 ng/mL
same,Plasma Concentrations of Compound of Formula I,"[1]; 24 h after administration, rat 2♂",0.308 ng/mL
same,Plasma Concentrations of Compound of Formula I,"[1]; 24 h after administration, rat 3♂",0.886 ng/mL
same,Plasma Concentrations of Compound of Formula I,"[1]; 24 h after administration, rat 4♂",0.306 ng/mL
same,concentration at 0 h,"[1]; male, SD, rat, plasma, oral, 1 mg/kg, Mean ± SD, read-out: Plasma Concentrations of Compound of Formula I",0 ng/mL
same,concentration at 0 h,"[1]; male, SD, rat, plasma, oral, 1 mg/kg, rat 1♂, read-out: Plasma Concentrations of Compound of Formula I",0 ng/mL
same,concentration at 0 h,"[1]; male, SD, rat, plasma, oral, 1 mg/kg, rat 2♂, read-out: Plasma Concentrations of Compound of Formula I",0 ng/mL
same,concentration at 0 h,"[1]; male, SD, rat, plasma, oral, 1 mg/kg, rat 3♂, read-out: Plasma Concentrations of Compound of Formula I",0 ng/mL
same,concentration at 0 h,"[1]; male, SD, rat, plasma, oral, 1 mg/kg, rat 4♂, read-out: Plasma Concentrations of Compound of Formula I",0 ng/mL
same,concentration at 0.167 h,"[1]; male, SD, rat, plasma, oral, 1 mg/kg, 0.167 h after administration, Mean ± SD, read-out: Plasma Concentrations of Compound of Formula I",14.9 ± 8.3 ng/mL
same,concentration at 0.167 h,"[1]; male, SD, rat, plasma, oral, 1 mg/kg, 0.167 h after administration, rat 2♂, read-out: Plasma Concentrations of Compound of Formula I",11.3 ng/mL
same,concentration at 0.167 h,"[1]; male, SD, rat, plasma, oral, 1 mg/kg, 0.167 h after administration, rat 4♂, read-out: Plasma Concentrations of Compound of Formula I",16.3 ng/mL
same,concentration at 0.333 h,"[1]; male, SD, rat, plasma, oral, 1 mg/kg, 0.333 h after administration, Mean ± SD, read-out: Plasma Concentrations of Compound of Formula I",42.2 ± 14.5 ng/mL
same,concentration at 0.333 h,"[1]; male, SD, rat, plasma, oral, 1 mg/kg, 0.333 h after administration, rat 4♂, read-out: Plasma Concentrations of Compound of Formula I",57 ng/mL
same,concentration at 0.5 h,"[1]; male, SD, rat, plasma, oral, 1 mg/kg, 0.5 h after administration, Mean ± SD, read-out: Plasma Concentrations of Compound of Formula I",46.4 ± 13.7 ng/mL
same,concentration at 0.5 h,"[1]; male, SD, rat, plasma, oral, 1 mg/kg, 0.5 h after administration, rat 1♂, read-out: Plasma Concentrations of Compound of Formula I",33.6 ng/mL
same,concentration at 0.5 h,"[1]; male, SD, rat, plasma, oral, 1 mg/kg, 0.5 h after administration, rat 4♂, read-out: Plasma Concentrations of Compound of Formula I",63.3 ng/mL
same,concentration at 1 h,"[1]; male, SD, rat, plasma, oral, 1 mg/kg, 1 h after administration, Mean ± SD, read-out: Plasma Concentrations of Compound of Formula I",43.7 ± 14.8 ng/mL
same,concentration at 1 h,"[1]; male, SD, rat, plasma, oral, 1 mg/kg, 1 h after administration, rat 1♂, read-out: Plasma Concentrations of Compound of Formula I",29.4 ng/mL
same,concentration at 1 h,"[1]; male, SD, rat, plasma, oral, 1 mg/kg, 1 h after administration, rat 2♂, read-out: Plasma Concentrations of Compound of Formula I",36.3 ng/mL
same,concentration at 1 h,"[1]; male, SD, rat, plasma, oral, 1 mg/kg, 1 h after administration, rat 4♂, read-out: Plasma Concentrations of Compound of Formula I",63.6 ng/mL
same,concentration at 2 h,"[1]; male, SD, rat, plasma, oral, 1 mg/kg, 2 h after administration, Mean ± SD, read-out: Plasma Concentrations of Compound of Formula I",25.1 ± 10.6 ng/mL
same,concentration at 2 h,"[1]; male, SD, rat, plasma, oral, 1 mg/kg, 2 h after administration, rat 1♂, read-out: Plasma Concentrations of Compound of Formula I",16.8 ng/mL
same,concentration at 2 h,"[1]; male, SD, rat, plasma, oral, 1 mg/kg, 2 h after administration, rat 2♂, read-out: Plasma Concentrations of Compound of Formula I",19.2 ng/mL
same,concentration at 4 h,"[1]; male, SD, rat, plasma, oral, 1 mg/kg, 4 h after administration, Mean ± SD, read-out: Plasma Concentrations of Compound of Formula I",8.91 ± 4.85 ng/mL
same,concentration at 4 h,"[1]; male, SD, rat, plasma, oral, 1 mg/kg, 4 h after administration, rat 1♂, read-out: Plasma Concentrations of Compound of Formula I",5.38 ng/mL
same,concentration at 6 h,"[1]; male, SD, rat, plasma, oral, 1 mg/kg, 6 h after administration, Mean ± SD, read-out: Plasma Concentrations of Compound of Formula I",3.99 ± 3.32 ng/mL
same,concentration at 6 h,"[1]; male, SD, rat, plasma, oral, 1 mg/kg, 6 h after administration, rat 1♂, read-out: Plasma Concentrations of Compound of Formula I",2.03 ng/mL
same,concentration at 6 h,"[1]; male, SD, rat, plasma, oral, 1 mg/kg, 6 h after administration, rat 3♂, read-out: Plasma Concentrations of Compound of Formula I",3.06 ng/mL
same,concentration at 9 h,"[1]; male, SD, rat, plasma, oral, 1 mg/kg, 9 h after administration, Mean ± SD, read-out: Plasma Concentrations of Compound of Formula I",1.65 ± 1.13 ng/mL
same,concentration at 9 h,"[1]; male, SD, rat, plasma, oral, 1 mg/kg, 9 h after administration, rat 1♂, read-out: Plasma Concentrations of Compound of Formula I",0.876 ng/mL
same,concentration at 9 h,"[1]; male, SD, rat, plasma, oral, 1 mg/kg, 9 h after administration, rat 3♂, read-out: Plasma Concentrations of Compound of Formula I",1.47 ng/mL
same,concentration at 12 h,"[1]; male, SD, rat, plasma, oral, 1 mg/kg, 12 h after administration, Mean ± SD, read-out: Plasma Concentrations of Compound of Formula I",0.823 ± 0.573 ng/mL
same,MRT0-∞,[2],3.63 ± 0.306 h
same,Tmax,[2],0.583 ± 0.289 h
same,t1/2,[2],2.78 ± 0.463 h
same,Hygroscopicity,[3],Almost no
same,Vapor sorption,[3],0.16%
